# Patent US8535942B2, “Glypican-3 (GPC3)-derived tumor rejection antigenic peptides useful for HLA-A2-positive patients and pharmaceutical comprising the same” (Oncotherapy Science, Inc., priority 2005, dated 2013)
# “Also recorded” adds a separate entry of the source. No end group written: not given here.
# Test system: SK-Hep-1/GPC3 cells
# Experiment: Cytotoxicity test of peptide-induced killer T cells (calcein AM, Terascan VP)
# Assay type: cell-based, human
# Conditions: killer T cells induced with peptide-loaded dendritic cells; targets SK-Hep-1/GPC3 vs SK-Hep-1; E/T ratio 20:1
# Procedure: Informed consent was obtained from HLA-A2-positive hepatocellular carcinoma patients, who were in therapy at Gastroenterological Surgery, Kumamoto University School of Medicine, and at Hospital East, the National Cancer Center. Thereafter, 30 ml of blood sample was obtained from individual patients, and peripheral blood mononuclear cells were then isolated using Ficoll-Conray density-gradient centrifugation method according to the previously reported method (Nakatsura, T et al., Eur. J. Immunol. 32, 826-836 (2002)).
# From the isolated peripheral blood mononuclear cells, killer T cells were induced by the previously reported method (Monji, M et al., Clin Cancer Res 10, 6047-6057, 2004). First, CD8-positive cells and CD14-positive cells were separated from the peripheral blood mononuclear cells using MACS. The CD14-positive cells were cultured in the presence of GM-CSF (100 ng/ml) and IL-4 (20 ng/ml) for 5 days, so that differentiation of dendritic cells was induced. Thereafter, TNF-α (20 ng/ml) was added thereto for maturation. On the 7th day, each GPC3 peptide (10 μM) was added thereto, and co-culture with CD8-positive cells was then carried out. This antigen stimulation with autologous CD14-positive cell-derived dendritic cells was repeated 3 or 4 times every week, so that peptide-specific killer T cells were induced. During the induction, half a medium was exchanged with a fresh one every two days, and IL-2 was added thereto in a concentration of 10 U/ml.
# The cytotoxic activity of killer T cells was evaluated by a cytotoxic test using Terascan VP. First, target cells were fluorescently labeled with a calcein AM staining solution at 37° C. for 30 minutes. Such cells were co-cultured with killer T cells on a Coster 96-well half area plate, and fluorescently labeled cells were then detected over time, thereby measuring the degree of cytotoxicity. The analysis was carried out using cytotoxicity test computing software CalCT-961 of MINERVA TECH, which was used in a fluorescence method. An experiment was carried out at an E/T ratio of 20:1. […]
row,Sequence,GPC3-specific cytotoxic activity
1,"RLQPGLKWV [GPC3 44-52, RLQPGLKWV]",confirmed; also recorded: exhibited strong cytotoxic activity
2,"FVGEFFTDV [GPC3 144-152, FVGEFFTDV]",confirmed; also recorded: exhibited strong cytotoxic activity
3,"YILGSDINV [GPC3 155-163, YILGSDINV]",confirmed; also recorded: exhibited strong cytotoxic activity
